According to patent publication US9789202B2, “Method for treating cancer using an interferon alpha conjugate” (HANMI SCIENCE CO., LTD., priority 2011, dated 2017):

What was measured:
[1] = system: human pancreatic cancer cells (BxPC3); assay: In vivo anti-cancer effect in nude mice subcutaneously transplanted with human pancreatic cancer cells (BxPC3); design: species or system Athymic BALB/c nude mice; conditions: BxPC3 xenograft, 4 weeks; gemcitabine 30 mg/kg Q3D x 4 weeks i.v.; conjugate or PEG interferon alpha 30 mcg/kg QW x 4 weeks s.c.; combination at the same doses
Protocol: In order to measure the in vivo anti-cancer effect of the interferon alpha conjugate prepared in Example 1, changes in the tumor size were examined in the mice subcutaneously transplanted with human pancreatic cancer cells (BxPC3). 5-week old Athymic BALB/c nude mice were subcutaneously injected with 1×10^8/4 mL of BxPC3 cells cultured in vitro, and then cultured. […] After administration of the experimental substances, changes in the tumor size of each group were measured for 4 weeks, and tumor inhibition rate relative to the control group was determined (Table 3).

[2] = system: human pancreatic cancer cells (Panc-1); assay: In vivo anti-cancer effect in nude mice subcutaneously transplanted with human pancreatic cancer cells (Panc-1); design: species or system Athymic BALB/c nude mice; conditions: Panc-1 xenograft, measured for 4 weeks; gemcitabine 40 mg/kg Q3D x 3 weeks i.v.; conjugate or PEG interferon alpha 30 mcg/kg QW x 3 weeks s.c.; combination at the same doses
Protocol: 5-week old Athymic BALB/c nude mice were subcutaneously injected with 1×10^8/4 mL of Panc-1 cells cultured in vitro, and then cultured. Thereafter, the mice were subcutaneously transplanted with solid cancer having a size of 30 mm^2. Then, the mice were divided into 5 groups (G1, G2, G3, G4, G5) of six mice each according to the size of cancer subcutaneously transplanted.
Single administrations of a control group (Vehicle), gemcitabine (40 mg/kg, Q3D, 3 weeks, intravenous injection), PEG-modified interferon alpha (30 mcg/kg, QW×3 weeks, subcutaneous injection), and interferon alpha conjugate of the present invention (30 mcg/kg, QW, 3 weeks, subcutaneous injection), and co-administration of gemcitabine (40 mg/kg, Q3D, 3 weeks, intravenous injection) and interferon alpha conjugate of the present invention (30 mcg/kg, QW, 3 weeks, subcutaneous injection) to the groups were performed. After administration of the experimental substances for 3 weeks, changes in the tumor size of each group were measured for 4 weeks, and tumor inhibition rate relative to the control group was determined (Table 4).

[3] = system: human pancreatic cancer cells (Miapaca-2); assay: In vivo anti-cancer effect in nude mice subcutaneously transplanted with human pancreatic cancer cells (Miapaca-2); design: species or system Athymic BALB/c nude mice; conditions: Miapaca-2 xenograft, measured for 4 weeks; gemcitabine 40 mg/kg Q3D x 4 weeks i.v.; conjugate or PEG interferon alpha 30 mcg/kg QW x 4 weeks s.c.; combinations at the same doses
Protocol: 5-week old Athymic BALB/c nude mice were subcutaneously injected with 1×10^8/4 mL of Miapaca-2 cells cultured in vitro, and then cultured. Thereafter, the mice were subcutaneously transplanted with solid cancer having a size of 30 mm^2. Then, the mice were divided into 5 groups (G1, G2, G3, G4, G5) of seven mice each according to the size of cancer subcutaneously transplanted.
Single administrations of a control group (Vehicle), gemcitabine (40 mg/kg, Q3D, 3 weeks, intravenous injection), PEG-modified interferon alpha (30 mcg/kg, QW×4 weeks, subcutaneous injection), and interferon alpha conjugate of the present invention (30 mcg/kg, QW, 4 weeks, subcutaneous injection), and co-administration of gemcitabine (40 mg/kg, Q3D, 4 weeks, intravenous injection) and interferon alpha conjugate of the present invention (30 mcg/kg, QW, 4 weeks, subcutaneous injection) to the groups were performed. After administration of the experimental substances for 3 weeks, changes in the tumor size of each group were measured for 4 weeks, and tumor inhibition rate relative to the control group was determined (Table 5).

pancreatic cancer = conditions: cited from earlier work
Daudi cells = assay: In vitro test on anti-proliferative efficacy in Daudi cells (CCK-8); assay type: cell-based, human; conditions: inhibition of Daudi cell proliferation, incubation 72 hours, CCK-8 absorbance at 450 nm
Protocol: Daudi cells were used, and RPMI1640 supplemented with 10% FBS and 10% PS was used as a culture medium and an experimental medium. Interferon alpha and interferon alpha conjugate of the present invention were diluted 4-fold with the experimental medium for 10 concentrations in 96-well round bottom plates. Each 50 μL of the diluted experimental medium was transferred to 96-well flat bottom plates. Daudi cells were centrifuged at 1000 rpm for 5 minutes, and then washed with 50 mL of PBS in a cornical tube. The cells were centrifuged at 1000 rpm for 5 minutes, and the experimental medium was added thereto, followed by counting the number of cells. Daudi cells were diluted to a concentration of 5×10^5 cell/mL, and then 100 μL was added to each well, followed by incubation at 37° C. for 72 hours. Then, 20 μL of CCK-8 was added to each well, and after 3 hours, absorbance was measured at 450 nm.
In vitro inhibitory effects of interferon alpha and interferon alpha conjugate of the present invention (long-acting interferon alpha conjugate) on cancer cell proliferation were examined by EC50 (Table 1, FIG. 1).

[4] = system: human ovarian cancer cells (SK-OV-3); assay: In vivo anti-cancer effect in nude mice subcutaneously transplanted with human ovarian cancer cells (SK-OV-3); design: species or system Athymic BALB/c nude mice; conditions: SK-OV-3 xenograft, 4 weeks, subcutaneous injection; interferon alpha 30 mcg/kg (Q1D*5)*4 weeks; PEG interferon alpha and conjugate 150 mcg/kg QW x 4 weeks
Protocol: In order to measure the in vivo anti-cancer effect of the interferon alpha conjugate prepared in Example 1, changes in the tumor size were examined in the mice subcutaneously transplanted with human ovarian cancer cells (SK-OV-3).
5-week old Athymic BALB/c nude mice were subcutaneously injected with 1×10^8/4 mL of SK-OV-3 cells cultured in vitro, and then cultured. Thereafter, the mice were subcutaneously transplanted with solid cancer having a size of 30 mm^2. Then, the mice were divided into 4 groups (G1, G2, G3, G4) of five mice each according to the size of cancer subcutaneously transplanted.
Single administrations of a control group (Vehicle), interferon alpha (30 mcg/kg, Q1D×5 times×4 weeks, subcutaneous injection), PEG-modified interferon alpha (150 mcg/kg, QW×4 weeks, subcutaneous injection), and interferon alpha conjugate of the present invention (150 mcg/kg, QW×4 weeks, subcutaneous injection) to the groups were performed. After administration of the experimental substances, changes in the tumor size of each group were measured for 4 weeks, and tumor inhibition rate relative to the control group was determined (Table 2).

EC50 (Daudi cells) [ng/mL] | Compound | Tumor inhibition rate (%, relative to vehicle) [1] [%] | Tumor inhibition rate (%, relative to vehicle) [2] [%] | Tumor inhibition rate (%, relative to vehicle) [3] [%] | median overall survival (pancreatic cancer; advanced pancreatic cancer, single administration) [months] | 1-year survival rate of pancreatic cancer patients (pancreatic cancer; metastatic pancreatic cancer) [%] | Tumor inhibition rate (%, relative to vehicle) [4] [%]
– | Nc1ccn([C@@H]2O[C@H](CO)[C@@H](O)C2(F)F)c(=O)n1 [Gemcitabine, 2′-deoxy-2′,2′-difluoro cytidine] | 20 | 60 | 17 | 5.7 | 18 | –
0.0217 | Interferon alpha: interferon alpha prepared according to Korean Patent No. 10-0360594; human interferon alpha-2b | – | – | – | – | – | 63.84
